According to patent US20250204555A1, “FEED AND METHODS FOR CONTROLLING INTESTINAL TRACT PARASITIC WORM INFECTIONS IN MAMMALS” (In the Bowl Animal Health, priority 2022, published 2025):

Experiments:
Type in all cases: in vivo
Toxocara canis [1] = assay: Efficacy of fenbendazole per os to dogs against Toxocara canis infections (fecal egg counts); settings: oral liquid formulation, 0.5, 1.0 or 1.5 mg/kg daily Days 0-52 (at least treatment groups 2-4), ~250 T. canis eggs on Day 0, expected by the end of the study period
From the text: Efficacy of Fenbendazole Administered per os, i.e. by Mouth, to Dogs for the Treatment and Control of Toxocara canis Infections. Methods: A pool of dogs are to be preliminarily examined to ensure suitability for the example. Dogs must be within normal weight ranges for breed, in good health with no known history of serious disease and neither pregnant nor lactating. Between Day-6 and Day-3, a fecal examination may be performed to confirm the absence of pre-existing infection by any nematode species. Dogs exposed to an anthelmintic within 30 days prior to Day-7 are to be excluded. 20 eligible dogs are to be weighed on Day-2 or Day-1 and randomly assigned to 1 of 5 groups by weight (1 control group and 4 treatment groups). Dogs are to be housed indoors to help prevent naturally occurring parasitic worm infections. Dogs may be pair housed, if compatible, or individually housed until allocation to treatment groups on Day 0. Thereafter, the dogs are to be housed individually. Dogs are to be fed a standard commercially available dog food at the recommended rates and should be allowed access to potable water ad libitum. Each dog in a treatment group (test groups 2-5) is to receive by mouth a liquid formulation of fenbendazole. The dosage is to be administered to the dogs on each of days 0-52 according to test groups, see TABLE 5. [table] […]

Toxocara canis [2] = assay: Efficacy of monepantel per os to dogs against Toxocara canis (fecal egg counts); settings: oral liquid formulation, 0.125, 0.25 or 0.5 mg/kg daily Days 0-52, ~250 T. canis eggs on Day 0, all treatment groups, expected by the end of the study period
From the text: Efficacy of Monepantel Administered per os, i.e. by Mouth, to Dogs for the Treatment and Control of Toxocara canis.
Methods: A pool of dogs are to be preliminarily examined to ensure suitability for the example. Dogs must be within normal weight ranges for breed, in good health with no known history of serious disease and neither pregnant nor lactating. On Day-6, a fecal examination may be performed to confirm the absence of pre-existing infection by any nematode species. Dogs exposed to an anthelmintic within 30 days prior to Day-7 are to be excluded.
16 eligible dogs are to be weighed on Day-1 and randomly assigned to 1 of 4 groups by weight (1 control group and 3 treatment groups).
Dogs are to be housed indoors to help prevent naturally occurring parasitic worm infections. Dogs may be pair housed, if compatible, or individually housed until allocation to treatment groups on Day 0. Thereafter, the dogs are to be housed individually. Dogs are to be fed a standard commercially available dog food at the recommended rates and should be allowed access to potable water ad libitum.
Each dog in a treatment group (test groups 2-4) is to receive by mouth a liquid formulation of monepantel. The dosage is to be administered to the dogs on each of days 0-52 according to test groups, see TABLE 4.
Dogs in the control group are not to receive any anthelmintics or any other worm control treatment. […]

Ancylostoma caninum = assay: Efficacy of monepantel per os to dogs against Ancylostoma caninum (fecal egg counts); settings: oral liquid formulation, 0.25 or 0.5 mg/kg daily Days 0-22, ~300 A. caninum larvae on Day 0, expected within approximately 2 weeks
From the text: Efficacy of Monepantel Administered per os, i.e. by Mouth, to Dogs for the Treatment and Control of Ancylostoma caninum. Methods: A pool of 12 dogs are to be preliminarily examined to ensure suitability for the example. Dogs must be within normal weight ranges for breed, in good health with no known history of serious disease and neither pregnant nor lactating. Between Day-7 and Day-3, a fecal examination may be performed to confirm the absence of pre-existing infection by any nematode species. Dogs exposed to an anthelmintic within 30 days prior to Day-7 are to be excluded. Dogs are to be weighed on Day-2 and randomly assigned to 1 of 3 groups by weight (1 control group and 2 treatment groups). Dogs may be pair housed, if compatible, or individually housed until allocation to treatment groups on Day 0. Thereafter, the dogs are to be housed individually. Dogs are to be fed a standard commercially available dog food at the recommended rates and should be allowed access to potable water ad libitum. Each dog in a treatment group (test groups 2-3) is to receive by mouth a liquid formulation of monepantel. The dosage is to be administered to the dogs on each of days 0-22 according to test groups, see TABLE 3. [table] Dogs in the control group are not to receive any anthelmintics or any other worm control treatment. Dogs are to be fasted overnight. […]

| SMILES | efficacy (fecal egg count reduction) (Toxocara canis [1]) [%] | efficacy (fecal egg count reduction) (Toxocara canis [2]) [%] | Percent reduction in fecal egg counts (Ancylostoma caninum) [%] |
| --- | --- | --- | --- |
| COC(=O)Nc1nc2ccc(Sc3ccccc3)cc2[nH]1 [Fenbendazole, methyl N-(6-phenylsulfanyl-1H-benzimidazol-2-yl) carbamate] | 100 | – | – |
| C[C@](C#N)(COc1cc(C#N)ccc1C(F)(F)F)NC(=O)c1ccc(SC(F)(F)F)cc1 [Monepantel, N-[(2S)-2-cyano-1-[5-cyano-2-(trifluoromethyl)phenoxy]propan-2-yl]-4-(trifluoromethylsulfanyl)benzamide] | – | 100 | 100 |
